According to PMC11020070, “Discovery of Protease-Activated Receptor 4 (PAR4)-Tethered Ligand Antagonists Using Ultralarge Virtual Screening” (ACS Pharmacology & Translational Science, 2024):
Where two headings read alike, the source gives them in different places.

Columns and labels:
[1] = target: T1, mouse PAR4 (Mus musculus, UniProt O88634); experiment: Mouse platelet activity assay, flow cytometry, γ-thrombin activation; type: cell-based
T1 construct: washed mouse platelets were prepared by collecting cardiac puncture blood; endogenous in cells; host or cells: washed mouse platelets (cardiac puncture blood)
T1 sequence (O88634 17-396): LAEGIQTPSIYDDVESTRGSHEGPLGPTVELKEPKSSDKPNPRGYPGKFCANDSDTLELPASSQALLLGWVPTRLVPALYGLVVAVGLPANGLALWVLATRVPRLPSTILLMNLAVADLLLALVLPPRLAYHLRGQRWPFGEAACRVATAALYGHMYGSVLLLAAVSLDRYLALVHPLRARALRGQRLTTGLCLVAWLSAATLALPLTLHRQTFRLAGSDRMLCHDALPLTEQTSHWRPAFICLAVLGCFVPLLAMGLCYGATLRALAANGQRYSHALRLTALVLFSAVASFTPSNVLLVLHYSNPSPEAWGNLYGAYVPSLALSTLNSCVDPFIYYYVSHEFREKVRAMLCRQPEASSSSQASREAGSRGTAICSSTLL
Description: For mouse PAR4 activity, washed mouse platelets were prepared by collecting cardiac puncture blood with 200 μL of 20 U/mL heparin. Following centrifugation at 1000 rpm for 15 min, plasma and buffy coat were collected into a separate tube and spiked with apyrase and PGE1. After centrifuging at 1000 rpm for 8 min, the platelet-rich plasma was transferred to another tube and centrifuged at 2200 rpm for 10 min to pellet the platelets. Platelets were resuspended in TBB + apyrase + PGE1. Platelets were counted and diluted in TBB to a final concentration of 2 × 10^7 platelets/mL. 50 μL of platelets were aliquoted to each tube preincubated with 50 μL of TBB with antibodies for mouse GPIIbIIIa and P-selectin (Emfret, Eibelstadt Germany) and either test compound antagonist or DMSO control. Platelets were activated with 316 nM γ-thrombin for 30 min. Samples were then fixed with 100 μL of 2% paraformaldehyde for 20 min and diluted with 300 μL of PBS. Flow cytometry counts are measured as for human platelets on a three-laser BD LSRFortessa (Becton Dickinson) and analyzed with FloJo software.

[2] = Microsomal stability, human liver microsomes; type: in vitro ADME; conditions: for CLint scaled at 1 µM: pH 7.4, human liver microsomes, in vitro, reaction started with NADPH; for human CLhep: predicted hepatic clearance from human liver microsomes
Description: The metabolic stability of each compound was investigated in mouse and human hepatic microsomes using substrate depletion methodology (% parent compound remaining). Prior to use, microsomes were removed from the freezer and allowed to thaw in a 37 °C water bath before being placed on wet ice.
In separate 96-well plates for each time point, a mixture of 0.1 M potassium phosphate-buffered (pH 7.4), 3 mM MgCl2, and 2.5 mg/mL microsomes were prewarmed at 37 °C for 5 min. Following the preincubation, a 1 μM test compound and 1 mM NADPH (for 3, 7, 15, 25, or 45 min time points) or buffer (for 0 min time point) were added to initiate the reaction. Under standard conditions, reactions were initiated with the addition of NADPH. To delineate the contribution of esterases, some experiments were initiated by the addition of substrate in the presence or absence of NADPH. Plates were incubated at 37 °C under ambient oxygenation. At the respective times, each plate’s reaction was precipitated by the addition of 2 volumes of ice-cold acetonitrile containing an internal standard (carbamazepine, 50 nM). The plates were centrifuged at 4000 rcf (4 °C) for 5 min. The resulting supernatants were transferred and diluted 1:1 (supernatant:water) into new 96-well plates in preparation for LC/MS/MS analysis. Each compound was assayed in triplicate within the same 96-well plate. The in vitro half-life (t1/2, min, eq 1), intrinsic clearance (CLint, mL/min/kg, eq 2), and subsequent predicted hepatic clearance (CLhep, mL/min/kg, eq 3) were determined employing the following equations [drawing 1] 1 [drawing 2] 2 [drawing 3] 3 The estimated percent contribution to metabolism was calculated from the percent substrate lost plots generated from metabolic incubations initiated with the addition of a test compound. Calculations compared the area under the curve (AUC) from conditions in the presence and absence of NADPH and buffer-only (control) conditions (eqs 4 and 5). AUC was calculated by using the trapezoidal method [drawing 4] 4 [drawing 5] 5
The analysis of in vitro samples from microsomal stability or plasma protein binding experiments was determined by employing LCMS/MS with an electrospray ionization-enabled 5500 Sciex instrument (Sciex, Foster City, CA) that was coupled to Agilent HPLC pumps and an autosampler (Agilent Technologies, Santa Clara, CA). Analytes were separated by gradient elution using a Kinetex C18 column (2.1 mm × 50 mm, 5 μm; Phenomenex, Torrance, CA) warmed to 35 °C. Mobile phase A was 0.5% formic acid in water, and mobile phase B was 0.5% formic acid in acetonitrile. […] The total run time was 2.8 min, and the HPLC flow rate was 0.5 mL/min. Mass spectral analyses were performed using multiple reaction monitoring, with transitions and voltages specific for each analyte using a Turbo Ion Spray source (source temperature of 500 °C) in positive ionization mode (5.0 kV spray voltage). Multiple reaction monitoring transitions were the following: 6110B8 (m/z 345.02 → 149.03, DP = 31; EP = 10; CE = 37 and CXP = 14), 6G3R (m/z 421.06 → 225.12, DP = 91; EP = 10; CE = 39 and CXP = 12), 5D22 (m/z 309.068 → 211.16, DP = 131; EP = 10; CE = 29 and CXP = 12), and carbamazepine (m/z 237 → 194, DP = 96; EP = 10; CE = 25 and CXP = 8). Data were analyzed using OS Sciex Analyst 1.5.1 (SCIEX, Framingham, MA), Graphpad Prism 10.1.0 (GraphPad Software, Boston, Massachusetts), and Microsoft Excel version 2310 (Microsoft, Redmond, WA).

[3] = Plasma protein binding, mouse plasma; type: in vitro ADME; conditions: pH 7.4, read-out: mouse PPB fu
Description: The protein binding of each compound was determined in mouse plasma via equilibrium dialysis employing single-use RED plates with inserts (Thermo Fisher Scientific, Rochester, NY). Plasma (220 μL) was added to a 96-well plate containing test compound (5 μL) and mixed thoroughly. Subsequently, 200 μL of the plasma–compound mixture was transferred to the cis chamber (red) of the RED plate with an accompanying 350 μL of phosphate buffer (25 mM, pH 7.4) in the trans chamber. The RED plate was sealed and incubated for 4 h at 37 °C with shaking. At completion, 50 μL aliquots from each chamber were diluted 1:1 (50 μL) with either plasma (cis) or buffer (trans) and transferred to a new 96-well plate, at which time ice-cold acetonitrile (2 volumes) was added to extract the matrices. The plate was centrifuged (3000 rpm, 10 min), and supernatants were transferred and diluted 1:1 (supernatant: water) into a new 96-well plate, which was then sealed in preparation for LC/MS/MS analysis. Each compound was assayed in triplicate within the same 96-well plate.
The analysis of in vitro samples from microsomal stability or plasma protein binding experiments was determined by employing LCMS/MS with an electrospray ionization-enabled 5500 Sciex instrument (Sciex, Foster City, CA) that was coupled to Agilent HPLC pumps and an autosampler (Agilent Technologies, Santa Clara, CA). Analytes were separated by gradient elution using a Kinetex C18 column (2.1 mm × 50 mm, 5 μm; Phenomenex, Torrance, CA) warmed to 35 °C. Mobile phase A was 0.5% formic acid in water, and mobile phase B was 0.5% formic acid in acetonitrile. […] The total run time was 2.8 min, and the HPLC flow rate was 0.5 mL/min. […] Data were analyzed using OS Sciex Analyst 1.5.1 (SCIEX, Framingham, MA), Graphpad Prism 10.1.0 (GraphPad Software, Boston, Massachusetts), and Microsoft Excel version 2310 (Microsoft, Redmond, WA).

[4] = Table 4 summary, read-out: mouse PAR4 IC50
[5] = mouse platelets, 316 nM γ-thrombin, GPIIbIIIa (JonA), read-out: Mouse Platelets JonA IC50
[6] = mouse platelets, 316 nM γ-thrombin, P-selectin, read-out: Mouse Platelets P-Sel IC50

SMILES	IC50 [1, 4]	IC50 [1, 5]	IC50 [1, 6]	CLint scaled at 1 µM [2]	human CLhep [2]	fraction unbound at 4 h [3]
Cc1cc(C(=O)Nc2n[nH]c(OC(F)F)n2)nn1-c1ccccc1 [Compound 9]	1450 nM	1450 nM	1450 nM	407 mL/min/kg	20 mL/min/kg	–
Cn1nc(C(=O)Nc2n[nH]c(-c3c(F)cccc3F)n2)cc1C1CC1 [Compound 12]	–	401 nM	370 nM	478 mL/min/kg	20.1 mL/min/kg	0.169
O=C(Nc1nc[nH]n1)c1nn(-c2ccccc2)c2c1CCC2 [Compound 17]	3330 nM	3330 nM	4020 nM	49.6 mL/min/kg	14.8 mL/min/kg	0.006
O=C(Nc1n[nH]c(-c2ccc(F)cc2F)n1)c1nn(-c2ccccc2)c2c1CCCC2 [Compound 31]	367 nM	367 nM	330 nM	459 mL/min/kg	20.1 mL/min/kg	0.044
COc1cccc(-c2nc(NC(=O)c3nn(-c4ccccc4)c4c3CCCC4)n[nH]2)c1 [Compound 32]	269 nM	269 nM	298 nM	285 mL/min/kg	19.6 mL/min/kg	–
